Reference: ChEMBL document CHEMBL1149953 (Bioorg Med Chem Lett, 1996)

How the values were obtained:
Rattus norvegicus [1] = experiment: In vivo potency to inhibit the pressor response induced by angiotensin II (100ng/Kg, iv) in conscious normotensive rat at 24 hours after administration of 3 mg/kg, po; format: functional; conditions: for inhibition in vivo at 3 mg/kg: Rattus norvegicus, po, 24 h
[2] = target: T1, Type-1 angiotensin II receptor B (Rattus norvegicus, UniProt P29089); experiment: In vitro ability to displace the specific binding of [125I]-A II from receptors in rat liver membrane(type 1 receptor)
T1 sequence (P29089 whole entry): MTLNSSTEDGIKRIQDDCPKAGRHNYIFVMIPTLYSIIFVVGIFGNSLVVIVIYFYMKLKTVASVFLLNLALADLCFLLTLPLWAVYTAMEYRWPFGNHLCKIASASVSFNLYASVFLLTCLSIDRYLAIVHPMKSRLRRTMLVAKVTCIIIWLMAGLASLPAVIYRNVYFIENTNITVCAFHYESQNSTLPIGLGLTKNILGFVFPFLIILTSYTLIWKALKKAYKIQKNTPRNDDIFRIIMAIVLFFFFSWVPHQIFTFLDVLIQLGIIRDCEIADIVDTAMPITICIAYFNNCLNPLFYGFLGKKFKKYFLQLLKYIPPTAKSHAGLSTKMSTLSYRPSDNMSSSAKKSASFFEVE

Rattus norvegicus [3] = experiment: In vivo potency to inhibit the pressor response induced by angiotensin II (100ng/Kg, iv) in conscious normotensive rat at 6 hours after administration of 3 mg/kg, po; format: functional; conditions: for inhibition in vivo at 3 mg/kg: Rattus norvegicus, po, 6 h
Rattus norvegicus [4] = experiment: In vivo potency to inhibit the pressor response induced by angiotensin II (100ng/Kg, iv) in conscious normotensive rat at 24 hours after administration of 1 mg/kg, po; format: functional
Rattus norvegicus [5] = experiment: In vivo potency to inhibit the pressor response induced by angiotensin II (100ng/Kg, iv) in conscious normotensive rat at 6 hours after administration of 0.3 mg/kg, po; format: functional
Rattus norvegicus [6] = experiment: Compound was tested for antihypertensive effect in renal hypertensive rats at 1 mg/kg, po expressed as percent reduction in blood pressure; format: functional
Rattus norvegicus [7] = experiment: In vivo potency to inhibit the pressor response induced by angiotensin II (100ng/Kg, iv) in conscious normotensive rat at 6 hours after administration of 1 mg/kg, po; format: functional
Rattus norvegicus [8] = experiment: In vivo potency to inhibit the pressor response induced by angiotensin II (100ng/Kg, iv) in conscious normotensive rat at 6 hours after administration of 0.1 mg/kg, po
Rattus norvegicus [9] = experiment: Compound was tested for antihypertensive effect in renal hypertensive rats at 0.3 mg/kg, po expressed as percent reduction in blood pressure; format: functional
Rattus norvegicus [10] = experiment: In vivo potency to inhibit the pressor response induced by angiotensin II (100ng/Kg, iv) in conscious normotensive rat at 24 hours after administration of 0.3 mg/kg, po; format: functional
Rattus norvegicus [11] = experiment: In vivo potency to inhibit the pressor response induced by angiotensin II (100ng/Kg, iv) in conscious normotensive rat at 24 hours after administration of 0.1 mg/kg, po
Rattus norvegicus [12] = experiment: Compound was tested for antihypertensive effect in renal hypertensive rats at 3 mg/kg, po expressed as percent reduction in blood pressure; format: functional
Rattus norvegicus [13] = experiment: Compound was tested for antihypertensive effect in renal hypertensive rats at 10 mg/kg, po expressed as percent reduction in blood pressure; format: functional
Rattus norvegicus [14] = experiment: In vivo potency to inhibit the pressor responses induced by angiotensin II (100ng/kg, iv) in conscious normotensive rat at 10 mg/kg dose specified 24 hr after peroral administration; format: functional; conditions: route oral
Rattus norvegicus [15] = experiment: In vivo potency to inhibit the pressor responses induced by angiotensin II (100ng/kg, iv) in conscious normotensive rat at 3 mg/kg dose specified 24 hr after peroral administration; format: functional; conditions: route oral
Rattus norvegicus [16] = experiment: In vivo potency to inhibit the pressor responses induced by angiotensin II (100ng/kg, iv) in conscious normotensive rat at 10 mg/kg dose specified 6 hr upon peroral administration; format: functional; conditions: route oral
Rattus norvegicus [17] = experiment: In vivo potency to inhibit the pressor responses induced by angiotensin II (100ng/kg, iv) in conscious normotensive rat at 1 mg/kg dose specified 6 hr upon peroral administration; format: functional; conditions: route oral
Rattus norvegicus [18] = experiment: Antihypertensive effect as reduction in blood pressure in renal hypertensive rats at 10 mg/kg dose specified administered perorally; format: functional; design: scale not given: the % may be the effect or the level left; conditions: route oral
Rattus norvegicus [19] = experiment: In vivo potency to inhibit the pressor responses induced by angiotensin II (100ng/kg, iv) in conscious normotensive rat at 3 mg/kg dose specified 6 hr upon peroral administration; format: functional; conditions: route oral
Rattus norvegicus [20] = experiment: Antihypertensive effect as reduction in blood pressure in renal hypertensive rats at 3 mg/kg dose specified administered perorally; format: functional; design: scale not given: the % may be the effect or the level left; conditions: route oral
Rattus norvegicus [21] = experiment: In vivo potency to inhibit the pressor responses induced by angiotensin II (100ng/kg, iv) in conscious normotensive rat at 1 mg/kg dose specified 24 hr after peroral administration; format: functional; conditions: route oral

Structure (SMILES): CCc1nn(Cc2ccc(-c3ccccc3-c3nn[nH]n3)cc2)/c(=N/C(=O)C2CC2)s1
- inhibition in vivo at 3 mg/kg (Rattus norvegicus [1]): -12.4%
- IC50 [2]: 6.5 nM
- inhibition in vivo at 3 mg/kg (Rattus norvegicus [3]): 7.8%

Structure (SMILES): CCc1nn(Cc2ccc(-c3ccccc3-c3nn[nH]n3)cc2)/c(=N/C(=O)C2=C(C(=O)[O-])CCC2)s1.[K+]
- Inhibition (Rattus norvegicus [4]): 57%
- Inhibition (Rattus norvegicus [5]): 45.4%
- Reduction (Rattus norvegicus [6]): 38.4%
- Inhibition (Rattus norvegicus [7]): 72.1%
- Inhibition (Rattus norvegicus [8]): 11.4%
- Reduction (Rattus norvegicus [9]): 27.2%
- Inhibition (Rattus norvegicus [10]): 20.7%
- Inhibition (Rattus norvegicus [11]): -0.7%

Structure (SMILES): CCc1nn(Cc2ccc(-c3ccccc3-c3nn[nH]n3)cc2)/c(=N/C(C)=O)s1
- inhibition in vivo at 3 mg/kg (Rattus norvegicus [1]): -10.3%
- IC50 [2]: 7.2 nM
- inhibition in vivo at 3 mg/kg (Rattus norvegicus [3]): 11.3%

Structure (SMILES): CCc1nn(Cc2ccc(-c3ccccc3-c3nn[nH]n3)cc2)/c(=N/C(=O)c2ccccc2)s1
- inhibition in vivo at 3 mg/kg (Rattus norvegicus [1]): -0.4%
- IC50 [2]: 37 nM
- inhibition in vivo at 3 mg/kg (Rattus norvegicus [3]): 4.9%

Structure (SMILES): CCc1nn(Cc2ccc(-c3ccccc3-c3nn[nH]n3)cc2)/c(=N/C(=O)C2=C(C(=O)O)CCC2)s1
- Inhibition (Rattus norvegicus [4]): 36.6%
- Inhibition (Rattus norvegicus [1]): 63.1%
- Inhibition (Rattus norvegicus [5]): 22.4%
- Reduction (Rattus norvegicus [6]): 33.5%
- Inhibition (Rattus norvegicus [7]): 36.4%
- IC50 [2]: 0.44 nM
- Reduction (Rattus norvegicus [12]): 44.3%
- inhibition in vivo at 0.3 mg/kg (Rattus norvegicus [10]; Rattus norvegicus, po, 24 h): 15%
- Inhibition (Rattus norvegicus [3]): 39.5%

Structure (SMILES): CCc1nn(Cc2ccc(-c3ccccc3-c3nn[nH]n3)cc2)/c(=N/C(=O)c2ccccc2C(=O)O)s1
- Reduction (Rattus norvegicus [13]): 33.8%
- inhibition in vivo at 3 mg/kg (Rattus norvegicus [1]): 23.2%
- IC50 [2]: 0.66 nM
- Reduction (Rattus norvegicus [12]): 25.1%
- inhibition in vivo at 3 mg/kg (Rattus norvegicus [3]): 48.1%

Structure (SMILES): CCc1nn(Cc2ccc(-c3ccccc3-c3nn[nH]n3)cc2)/c(=N/C(=O)c2ccccc2Cl)s1
- Reduction (Rattus norvegicus [13]): 20.2%
- inhibition in vivo at 3 mg/kg (Rattus norvegicus [1]): -11.3%
- IC50 [2]: 3.6 nM
- inhibition in vivo at 3 mg/kg (Rattus norvegicus [3]): 21.3%

Structure (SMILES): CCCCc1nc(Cl)c(CO)n1Cc1ccc(-c2ccccc2-c2nnn[n-]2)cc1.[K+] [LOSARTAN POTASSIUM]
- inhibition in vivo at 10 mg/kg (Rattus norvegicus [14]): 57.4%
- inhibition in vivo at 3 mg/kg (Rattus norvegicus [15]): 27.9%
- inhibition in vivo at 10 mg/kg (Rattus norvegicus [16]): 74.2%
- inhibition in vivo at 1 mg/kg (Rattus norvegicus [17]): 19.3%
- Activity (Rattus norvegicus [18]): 40.4%
- inhibition in vivo at 3 mg/kg (Rattus norvegicus [19]): 50.1%
- Activity (Rattus norvegicus [20]): 27.4%
- inhibition in vivo at 1 mg/kg (Rattus norvegicus [21]): 7.3%
